Reference: US7939552B2, “Benzyloxypropylamine derivative” (Nippon Zoki Pharmaceutical Co., Ltd., priority 2005, dated 2011)
Structures can show the parent of a compound that is named as a salt.

Columns and labels:
human NK1 receptor = molecular target: T1, human NK1 receptor (Homo sapiens, UniProt P25103); assay: Human NK1 receptor binding assay (3H-Sar9-SP, hNK1-CHO cells); settings: room temperature 60 minutes
T1 construct: expressed in transfected cells; host or cells: CHO cells (hNK1-CHO)
Procedure: A supernatant liquid was removed from an hNK1-CHO cell incubation flask in a confluent state, trypsin (0.25%)-EDTA (1 mmol/L) (Gibco) was added thereto and the cells were exfoliated and recovered. After they were washed with a buffer A (pH 7.5; 50 mmol/L Tris hydrochloride 50 mmol/L, 150 mmol/L NaCl and 0.02% BSA) for one time (at […] for 5 minutes), cell numbers were adjusted and re-floated on a buffer for assay {a buffer A to which 40 μg/mL bacitracin (Sigma), 4 μg/mL leupeptin (Sigma), 4 μg/mL chymostatin (Sigma) and 4 μg/mL phosphoramidon (Sigma) were added}. The hNK1-CHO cells (100 μL) were placed in a tube (TPX-12, Maruemu) in which 300 μL of the buffer for assay was charged so as to make cells 10^5 per tube, 50 μL of a hot solution (^3H-Sar^9-SP, final concentration: […]) and 50 μL of a substance to be tested were added (a system of 500 μL), stirred and made to react at room temperature for 60 minutes. After completion of the reaction, it was filtered through a GF/B filter (25 mm diameter, Whatman) which was previously dipped in 0.1% polyethyleneimine p-70 (Wako Pure Chemical), washed with the buffer A (4 mL each for three times), placed in a vial and dried at 60° C. for one night. After drying, 10 mL of a scintillator (AL-1, toluene base, Dojindo) was added thereto and dpm was measured by a liquid scintillation counter (for 5 minutes/vial).
With regard to a nonspecific binding, it was defined as the dpm when 10 μmol/L of the substance P was added instead of the substance to be tested. The experiment was conducted in duplicate and at least three experiments were repeated. IC50 value was calculated using a probit method (statistic library II, Yukms).

[1] = Pharmacokinetic test in blood by a single oral administration to guinea pigs; format: in vivo; settings: male, Hartley, guinea pig, po, 100 mg/kg orally, plasma; for AUC(0-t): read-out: AUC 0-24 h; for Cmax: read-out: Cmax; for Tmax: read-out: Tmax; for half-life: read-out: t½ (converted)
Procedure: Male guinea pigs of a Hartley strain (SPF, Nippon SLC) were purchased and subjected to a preliminary breeding for one week and the normally grown ones were fasted for one night and used for the test. The compound of the present invention was suspended in 1 g/dL methyl cellulose solution and 100 mg/kg was orally administered in an administering dose of 5 mL/kg. After 0.5, 1, 2, 4, 8 and 24 hour(s) from the oral administration, about 0.4 mL of blood was collected from the vein of median of foreleg using a heparinized capillary. Plasma prepared by its centrifugation (at 12,000 rpm for 10 minutes) was stored at −80° C. until the measurement. Measurement of the concentration in blood was conducted by a UV-detecting HPLC method.

T1 sequence (P25103 whole entry): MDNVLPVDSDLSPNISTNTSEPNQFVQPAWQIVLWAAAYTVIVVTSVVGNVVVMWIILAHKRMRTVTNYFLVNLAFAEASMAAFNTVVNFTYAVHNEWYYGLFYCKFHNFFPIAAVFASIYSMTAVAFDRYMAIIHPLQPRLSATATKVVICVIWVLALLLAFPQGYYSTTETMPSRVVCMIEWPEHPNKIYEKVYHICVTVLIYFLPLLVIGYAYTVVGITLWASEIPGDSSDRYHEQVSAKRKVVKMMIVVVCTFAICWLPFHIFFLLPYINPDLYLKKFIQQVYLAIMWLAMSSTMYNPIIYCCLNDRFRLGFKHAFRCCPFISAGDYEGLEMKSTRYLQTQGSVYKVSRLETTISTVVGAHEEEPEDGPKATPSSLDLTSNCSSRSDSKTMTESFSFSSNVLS

| IC50 (human NK1 receptor) [nM] | AUC(0-t) [1] [µg·h/mL] | Cmax [1] [ng/mL] | Tmax [1] [h] | half-life [1] [h] | Structure (SMILES) |
| --- | --- | --- | --- | --- | --- |
| 7.3 | 379 | 25700 | 8 | 3.2 | O=C(Cc1cc[n+]([O-])cc1)NCC(COCc1cc(C(F)(F)F)cc(C(F)(F)F)c1)c1ccccc1 (stereo not shown) [Compound 39, N-[3-(3,5-Bis(trifluoromethyl)benzyloxy)-2-phenylpropyl]-2-(1-oxypyridin-4-yl)acetamide] |
| 5.4 | 236 | 17500 | 4 | 3.5 | O=C(NCC(COCc1cc(C(F)(F)F)cc(C(F)(F)F)c1)c1ccc(F)cc1)c1ccc[n+]([O-])c1 (stereo not shown) [Compound 23, N-[3-(3,5-Bis(trifluoromethyl)benzyloxy)-2-(4-fluorophenyl)propyl]-1-oxynicotinamide] |
| 5.8 | 87.3 | 10900 | 2 | 3.4 | O=C(NCC(COCc1cc(C(F)(F)F)cc(C(F)(F)F)c1)c1ccccc1)c1cc[n+]([O-])cc1 (stereo not shown) [Compound 20, N-[3-(3,5-Bis(trifluoromethyl)benzyloxy)-2-phenylpropyl]-1-oxyisonicotinamide] |
| 9.4 | 103 | 13800 | 1 | 3.4 | O=C(CCc1cc[n+]([O-])cc1)NCC(COCc1cc(C(F)(F)F)cc(C(F)(F)F)c1)c1ccccc1 (stereo not shown) [Compound 51, N-[3-(3,5-Bis(trifluoromethyl)benzyloxy)-2-phenylpropyl]-3-(1-oxypyridin-4-yl)propionamide] |
| 29.3 | 28.2 | 2000 | 8 | – | Cl.O=C(NCC(COCc1cc(C(F)(F)F)cc(C(F)(F)F)c1)c1ccccc1)C1CCNCC1 (stereo not shown) [Compound 4, N-[3-(3,5-Bis(trifluoromethyl)benzyloxy)-2-phenylpropyl]piperidine-4-carboxamide hydrochloride] |
| 6.4 | 200 | 18300 | 2 | 2.6 | O=C(NCC(COCc1cc(C(F)(F)F)cc(C(F)(F)F)c1)c1ccccc1)c1ccc[n+]([O-])c1 (stereo not shown) [Compound 22, N-[3-(3,5-Bis(trifluoromethyl)benzyloxy)-2-phenylpropyl]-1-oxynicotinamide] |
| 4 | 215 | 16900 | 4 | 3 | O=C(Cc1ccc[n+]([O-])c1)NCC(COCc1cc(C(F)(F)F)cc(C(F)(F)F)c1)c1ccc(F)cc1 (stereo not shown) [Compound 42, N-[3-(3,5-Bis(trifluoromethyl)benzyloxy)-2-(4-fluorophenyl)propyl]-2-(1-oxypyridin-3-yl)acetamide] |
| 30.3 | – | – | – | – | CN(CC(COCc1cc(C(F)(F)F)cc(C(F)(F)F)c1)c1ccccc1)C(=O)CCCCN (stereo not shown) [Compound 106, 5-Aminopentanoic acid [3-(3,5-bis(trifluoromethyl)benzyloxy)-2-phenylpropyl]methylamide hydrochloride] |
| 23.8 | – | – | – | – | CN(CC(COCc1cc(C(F)(F)F)cc(C(F)(F)F)c1)c1ccccc1)C(=O)c1cc[n+]([O-])cc1 (stereo not shown) [Compound 99, N-[3-(3,5-Bis(trifluoromethyl)benzyloxy)-2-phenylpropyl]-N-methyl-1-oxyisonicotinamide] |
| 56.4 | 19.7 | 1700 | 4 | 8 | Cl.O=C(NCC(COCc1cc(C(F)(F)F)cc(C(F)(F)F)c1)c1ccccc1)c1ccc(CN2CCCC2)cc1 (stereo not shown) [Compound 64, N-[3-(3,5-Bis(trifluoromethyl)benzyloxy)-2-phenylpropyl]-4-pyrrolidin-1-ylmethylbenzamide hydrochloride] |
| 8.5 | – | – | – | – | O=C(C=Cc1ccc[n+]([O-])c1)NCC(COCc1cc(C(F)(F)F)cc(C(F)(F)F)c1)c1ccccc1 (stereo not shown) [Compound 54, N-[3-(3,5-Bis(trifluoromethyl)benzyloxy)-2-phenylpropyl]-3-(1-oxypyridin-3-yl)acrylamide] |
| 28.5 | – | – | – | – | CN1CCC(C(=O)N(C)CC(COCc2cc(C(F)(F)F)cc(C(F)(F)F)c2)c2ccccc2)CC1 (stereo not shown) [Compound 96, N-[3-(3,5-Bis(trifluoromethyl)benzyloxy)-2-phenylpropyl]-N-methyl-1-methylpiperidine-4-carboxamide hydrochloride] |
| 43.5 | – | – | – | – | O=C(CN1CCC(N2CCCCC2)CC1)NCC(COCc1cc(C(F)(F)F)cc(C(F)(F)F)c1)c1ccccc1 (stereo not shown) [Compound 91, N-[3-(3,5-Bis(trifluoromethyl)benzyloxy)-2-phenylpropyl]-2-[1,4′]bipiperidinyl-1′-ylacetamide dihydrochloride] |
| 21 | – | – | – | – | NCCC(=O)NCC(COCc1cc(C(F)(F)F)cc(C(F)(F)F)c1)c1ccc(F)cc1 (stereo not shown) [Compound 76, 3-Amino-N-[3-(3,5-bis(trifluoromethyl)benzyloxy)-2-(4-fluorophenyl)propyl]propionamide hydrochloride] |
| 7.3 | 279 | 22800 | 4 | 4 | O=C(Cc1cc[n+]([O-])cc1)NCC(COCc1cc(C(F)(F)F)cc(C(F)(F)F)c1)c1ccc(F)cc1 (stereo not shown) [Compound 40, N-[3-(3,5-Bis(trifluoromethyl)benzyloxy)-2-(4-fluorophenyl)propyl]-2-(1-oxypyridin-4-yl)acetamide] |
| 33.6 | – | – | – | – | NCCC(=O)NCC(COCc1cc(C(F)(F)F)cc(C(F)(F)F)c1)c1ccccc1 (stereo not shown) [Compound 74, 3-Amino-N-[3-(3,5-bis(trifluoromethyl)benzyloxy)-2-phenylpropyl]propionamide hydrochloride] |
| 14.7 | – | – | – | – | O=C(O)CN1CCC(C(=O)NCC(COCc2cc(C(F)(F)F)cc(C(F)(F)F)c2)c2ccccc2)CC1 (stereo not shown) [Compound 80, {4-[3-(3,5-Bis(trifluoromethyl)benzyloxy)-2-phenylpropylcarbamoyl]piperidin-1-yl}acetic acid hydrochloride] |
